{"source": "patent US20200216439A1", "about": "“HETERO-1,5,6,7-TETRAHYDRO-4H-INDOL-4-ONES” (BAYER PHARMA AKTIENGESELLSCHAFT, priority 2015, published 2020)", "data": [{"target": "T1, catalytic domain of human Bub1 (amino acids 704-1085) (Homo sapiens, UniProt O43683)", "T1 construct": "catalytic domain of human Bub1 (amino acids 704-1085); His6 (N); made in house; host or cells: Hi5 insect cells", "T1 sequence (O43683 704-1085)": "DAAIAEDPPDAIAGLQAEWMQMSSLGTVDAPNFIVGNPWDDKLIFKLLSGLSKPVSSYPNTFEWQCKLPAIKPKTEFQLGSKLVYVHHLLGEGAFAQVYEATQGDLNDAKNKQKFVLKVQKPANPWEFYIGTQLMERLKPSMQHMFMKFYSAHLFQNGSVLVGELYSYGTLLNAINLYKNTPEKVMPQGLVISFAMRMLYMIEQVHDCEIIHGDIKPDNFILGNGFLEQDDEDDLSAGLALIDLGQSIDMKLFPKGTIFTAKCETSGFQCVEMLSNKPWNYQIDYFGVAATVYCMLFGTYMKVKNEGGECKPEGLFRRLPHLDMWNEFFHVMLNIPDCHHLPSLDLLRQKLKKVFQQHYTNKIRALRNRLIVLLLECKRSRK", "test": "Bub1 kinase assay (TR-FRET)", "format": "biochemical", "conditions": "TR-FRET; ATP 10 μM, peptide substrate 1 μM; 60 min at 22° C.; average or median if tested more than once; read-out: Inhibition of Bub1 kinase IC50", "summary_of_the_method": "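Eleven concentrations (0.1 nM–20 μM, duplicate) fitted by 4-parameter logistic for IC50. Read-out: EDTA-stopped TR-FRET (665/620 nm) detecting anti-phosphoserine binding to biotin-peptide (1 μM). Reaction used 10 μM ATP, 60 min at 22 °C, after 15 min compound preincubation with His-tagged human Bub1 704-1085.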", "units": {"IC50": "µM"}, "values": [{"smiles": "CC(=O)Nc1cc(-c2[nH]c3c(c2Nc2ccccc2)C(=O)CN(C(=O)N2CCOCC2)C3)ccn1", "note": "[Example 125, N-{4-[3-Anilino-6-(morpholin-4-ylcarbonyl)-4-oxo-4,5,6,7-tetrahydro-1H-pyrrolo[2,3-c]pyridin-2-yl]pyridin-2-yl}acetamide]", "IC50": 0.01}, {"smiles": "CC(=O)Nc1cc(-c2[nH]c3c(c2Nc2ccccc2)C(=O)CN(C(=O)N2CCCC2)C3)ccn1", "note": "[Example 126, N-{4-[3-Anilino-4-oxo-6-(pyrrolidin-1-ylcarbonyl)-4,5,6,7-tetrahydro-1H-pyrrolo[2,3-c]pyridin-2-yl]pyridin-2-yl}acetamide]", "IC50": 0.007}, {"smiles": "CC(=O)Nc1cc(-c2[nH]c3c(c2Nc2ccccc2)C(=O)CN(C(=O)N2CCN(C)CC2)C3)ccn1", "note": "[Example 127, N-(4-{3-Anilino-6-[(4-methylpiperazin-1-yl)carbonyl]-4-oxo-4,5,6,7-tetrahydro-1H-pyrrolo[2,3-c]pyridin-2-yl}pyridin-2-yl)acetamide]", "IC50": 0.029}, {"smiles": "CC(C)(C)OC(=O)N1CC(=O)c2c([nH]c(-c3ccnc(NC(=O)[C@H]4C[C@H]4F)c3)c2Nc2ccccc2)C1", "note": "[Example 128, tert-Butyl 3-anilino-2-[2-({[(1R,2R)-2-fluorocyclopropyl]carbonyl}amino)pyridin-4-yl]-4-oxo-1,4,5,7-tetrahydro-6H-pyrrolo[2,3-c]pyridine-6-carboxylate]", "IC50": 0.008}, {"smiles": "CC(C)(F)C(=O)Nc1cc(-c2[nH]c3c(c2Nc2ccccc2)C(=O)CNC3)ccn1", "note": "[Example 130, N-[4-(3-Anilino-4-oxo-4,5,6,7-tetrahydro-1H-pyrrolo[2,3-c]pyridin-2-yl)pyridin-2-yl]-2-fluoro-2-methylpropanamide]", "IC50": 0.662}, {"smiles": "CC(C)(C)OC(=O)N1CC(=O)c2c([nH]c(-c3ccnc(NC(=O)C4(F)CC4)c3)c2Nc2ccccc2)C1", "note": "[Example 131, tert-Butyl 3-anilino-2-{2-([(1-fluorocyclopropyl)carbonyl]amino}pyridin-4-yl)-4-oxo-1,4,5,7-tetrahydro-6H-pyrrolo[2,3-c]pyridine-6-carboxylate]", "IC50": 0.023}, {"smiles": "O=C1CNCc2[nH]c(-c3ccnc(NC(=O)C4(F)CC4)c3)c(Nc3ccccc3)c21", "note": "[Example 132, N-[4-(3-anilino-4-oxo-4,5,6,7-tetrahydro-1H-pyrrolo[2,3-c]pyridin-2-yl)pyridin-2-yl]-1-fluorocyclopropanecarboxamide]", "IC50": 0.299}, {"smiles": "CC(C)(C)OC(=O)N1CC(=O)c2c([nH]c(-c3ccnc(NC(=O)c4ccc(F)cc4)c3)c2Nc2ccccc2)C1", "note": "[Example 133, tert-Butyl 3-anilino-2-{2-[(4-fluorobenzoyl)amino]pyridin-4-yl}-4-oxo-1,4,5,7-tetrahydro-6H-pyrrolo[2,3-c]pyridine-6-carboxylate]", "IC50": 0.028}, {"smiles": "O=C(Nc1cc(-c2[nH]c3c(c2Nc2ccccc2)C(=O)CNC3)ccn1)c1ccc(F)cc1", "note": "[Example 134, N-[4-(3-anilino-4-oxo-4,5,6,7-tetrahydro-1H-pyrrolo[2,3-c]pyridin-2-yl)pyridin-2-yl]-4-fluorobenzamide]", "IC50": 0.036}, {"smiles": "O=C(Nc1cc(-c2[nH]c3c(c2Nc2ccccc2)C(=O)CNC3)ccn1)c1cncs1", "note": "[Example 135]", "IC50": 0.051}, {"smiles": "O=C1CNCc2[nH]c(-c3ccnc(NC(=O)[C@H]4C[C@H]4F)c3)c(Nc3ccccc3)c21", "note": "[Example 138, (1R,2R)—N-[4-(3-Anilino-4-oxo-4,5,6,7-tetrahydro-1H-pyrrolo[2,3-c]pyridin-2-yl)pyridin-2-yl]-2-fluorocyclopropanecarboxamide]", "IC50": 0.224}, {"smiles": "COc1cc(C(=O)Nc2cc(-c3[nH]c4c(c3Nc3ccccc3)C(=O)COC4)ccn2)ccc1F", "note": "[Example 140, N-[4-(3-Anilino-4-oxo-1,4,5,7-tetrahydropyrano[3,4-b]pyrrol-2-yl)pyridin-2-yl]-4-fluoro-3-methoxybenzamide]", "IC50": 0.031}, {"smiles": "COC(=O)N1CC(=O)c2c([nH]c(-c3ccnc(NC(=O)[C@H]4C[C@H]4F)c3)c2Nc2ccccc2)C1", "note": "[Example 141, Methyl 3-anilino-2-[2-({[(1R,2R)-2-fluorocyclopropyl]carbonyl}amino)pyridin-4-yl]-4-oxo-1,4,5,7-tetrahydro-6H-pyrrolo[2,3-c]pyridine-6-carboxylate]", "IC50": 0.007}, {"smiles": "COC(=O)N1CC(=O)c2c([nH]c(-c3ccnc(NC(=O)[C@@H]4C[C@H]4F)c3)c2Nc2ccccc2)C1", "note": "[Example 143, Methyl 3-anilino-2-[2-({[(1S,2R)-2-fluorocyclopropyl]carbonyl}amino)pyridin-4-yl]-4-oxo-1,4,5,7-tetrahydro-6H-pyrrolo[2,3-c]pyridine-6-carboxylate]", "IC50": 0.006}, {"smiles": "COC(=O)N1CC(=O)c2c([nH]c(-c3ccnc(NC(=O)C(C)(C)F)c3)c2Nc2ccccc2)C1", "note": "[Example 144, Methyl 3-anilino-2-{2-[(2-fluoro-2-methylpropanoyl)amino]pyridin-4-yl}-4-oxo-1,4,5,7-tetrahydro-6H-pyrrolo[2,3-c]pyridine-6-carboxylate]", "IC50": 0.02}, {"smiles": "O=C(Nc1cc(-c2[nH]c3c(c2Nc2ccccc2)C(=O)COC3)ccn1)c1ccn[nH]1", "note": "[Example 145, N-[4-(3-Anilino-4-oxo-1,4,5,7-tetrahydropyrano[3,4-b]pyrrol-2-yl)pyridin-2-yl]-1H-pyrazole-5-carboxamide]", "IC50": 0.016}, {"smiles": "COC(=O)N1CC(=O)c2c([nH]c(-c3ccnc(NC(=O)C4(F)CC4)c3)c2Nc2ccccc2)C1", "note": "[Example 147, Methyl 3-anilino-2-{2-([(1-fluorocyclopropyl)carbonyl]amino}pyridin-4-yl)-4-oxo-1,4,5,7-tetrahydro-6H-pyrrolo[2,3-c]pyridine-6-carboxylate]", "IC50": 0.008}, {"smiles": "CS(=O)(=O)N1CC(=O)c2c([nH]c(-c3ccnc(NC(=O)C4(F)CC4)c3)c2Nc2ccccc2)C1", "note": "[Example 150, N-{4-[3-Anilino-6(methylsulfonyl)-4-4-oxo-4,5,6,7-tetrahydro-1H-pyrrolo[2,3-c]pyridin-2-yl]pyridin-2-yl}-1-fluorocyclopropanecarboxamide]", "IC50": 0.005}, {"smiles": "CS(=O)(=O)N1CC(=O)c2c([nH]c(-c3ccnc(NC(=O)c4cncs4)c3)c2Nc2ccccc2)C1", "note": "[Example 151]", "IC50": 0.004}, {"smiles": "CC(C)(O)C(=O)Nc1cc(-c2[nH]c3c(c2Nc2ccccc2)C(=O)COC3)ccn1", "note": "[Example 152, N-[4-(3-Anilino-4-oxo-1,4,5,7-tetrahydropyrano[3,4-b]pyrrol-2-yl)pyridin-2-yl]-2-hydroxy-2-methylpropanamide]", "IC50": 0.437}, {"smiles": "CN(C)CC(=O)Nc1cc(-c2[nH]c3c(c2Nc2ccccc2)C(=O)COC3)ccn1", "note": "[Example 153, N-[4-(3-Anilino-4-oxo-1,4,5,7-tetrahydropyrano[3,4-b]pyrrol-2-yl)pyridin-2-yl]-N^2,N^2-dimethylglycinamide]", "IC50": 0.51}, {"smiles": "O=C(Nc1cc(-c2[nH]c3c(c2Nc2ccccc2)C(=O)COC3)ccn1)c1ccc(F)c(F)c1", "note": "[Example 154, N-[4-(3-Anilino-4-oxo-1,4,5,7-tetrahydropyrano[3,4-b]pyrrol-2-yl)pyridin-2-yl]-3,4-difluorobenzamide]", "IC50": 0.019}, {"smiles": "CC(C)OC(=O)N1CC(=O)c2c([nH]c(-c3ccnc(NC(=O)C(C)(C)F)c3)c2Nc2ccccc2)C1", "note": "[Example 155, Isopropyl 3-anilino-2-{2-[(2-fluoro-2-methylpropanoyl)amino]pyridin-4-yl}-4-oxo-1,4,5,7-tetrahydro-6H-pyrrolo[2,3-c]pyridine-6-carboxylate]", "IC50": 0.06}, {"smiles": "CC(C)OC(=O)N1CC(=O)c2c([nH]c(-c3ccnc(NC(=O)c4cncs4)c3)c2Nc2ccccc2)C1", "note": "[Example 156, Isopropyl 3-anilino-4-oxo-2-{2-[(1,3-thiazol-5-ylcarbonyl)amino]pyridin-4-yl}-1,4,5,7-tetrahydro-6H-pyrrolo[2,3-c]pyridine-6-carboxylate]", "IC50": 0.012}, {"smiles": "CC(C)OC(=O)N1CC(=O)c2c([nH]c(-c3ccnc(NC(=O)C4(F)CC4)c3)c2Nc2ccccc2)C1", "note": "[Example 159, Isopropyl 3-anilino-2-{2-([(1-fluorocyclopropyl)carbonyl]amino}pyridin-4-yl)-4-oxo-1,4,5,7-tetrahydro-6H-pyrrolo[2,3-c]pyridine-6-carboxylate]", "IC50": 0.022}, {"smiles": "O=C(Nc1cc(-c2[nH]c3c(c2Nc2ccccc2)C(=O)CN(S(=O)(=O)c2cnc[nH]2)C3)ccn1)c1ccc(F)cc1", "note": "[Example 160, N-{4-[3-Anilino-6-(1H-imidazol-5-ylsulfonyl)-4-oxo-4,5,6,7-tetrahydro-1H-pyrrolo[2,3-c]pyridin-2-yl]pyridin-2-yl}-4-fluorobenzamide]", "IC50": 0.004}, {"smiles": "O=C(Nc1cc(-c2[nH]c3c(c2Nc2ccccc2)C(=O)CN(S(=O)(=O)c2cnc[nH]2)C3)ccn1)c1cncs1", "note": "[Example 161, N-{4-[3-Anilino-6-(1H-imidazol-5-ylsulfonyl)-4-oxo-4,5,6,7-tetrahydro-1H-pyrrolo[2,3-c]pyridin-2-yl]pyridin-2-yl}-1,3-thiazole-5-carboxamide]", "IC50": 0.005}, {"smiles": "CC(C)(F)C(=O)Nc1cc(-c2[nH]c3c(c2Nc2ccccc2)C(=O)CN(S(=O)(=O)c2cnc[nH]2)C3)ccn1", "note": "[Example 162, N-{4-[3-Anilino-6(1H-imidazol-5-ylsulfonyl)-4-oxo-4,5,6,7-tetrahydro-1H-pyrrolo[2,3-c]pyridin-2-yl]pyridin-2-yl}-2-fluoro-2-methylpropanamide]", "IC50": 0.038}, {"smiles": "O=C1CN(S(=O)(=O)c2cnc[nH]2)Cc2[nH]c(-c3ccnc(NC(=O)C4(F)CC4)c3)c(Nc3ccccc3)c21", "note": "[Example 165, N-{4-[3-Anilino-6-(1H-imidazol-5-ylsulfonyl)-4-oxo-4,5,6,7-tetrahydro-1H-pyrrolo[2,3-c]pyridin-2-yl]pyridin-2-yl}-1-fluorocyclopropanecarboxamide]", "IC50": 0.014}, {"smiles": "CC(=O)Nc1cc(-c2[nH]c3c(c2Nc2ccccc2)C(=O)CN(C(=O)N2CCCCC2)C3)ccn1", "note": "[Example 166, N-{4-[3-Anilino-4-oxo-6-(piperidin-1-ylcarbonyl)-4,5,6,7-tetrahydro-1H-pyrrolo[2,3-c]pyridin-2-yl]pyridin-2-yl}acetamide]", "IC50": 0.003}]}]}
